This passage reports Ki and IC90 results from ChEMBL document CHEMBL1150036, “Functionalized aliphatic P2/P2 analogs of HIV-1 protease inhibitor DMP323” (Bioorg Med Chem Lett, 1997).

The Ki is the dissociation constant of the complex between target and ligand, obtained from inhibition or displacement. Usually IC90 stands for the concentration needed for an effect of 90%.

The target in experiment [1] is Human immunodeficiency virus type 1 protease (Human immunodeficiency virus 1, UniProt Q72874). The experiment in a line: Inhibitory activity against HIV-1 protease.
The test system of experiment [2] is Human immunodeficiency virus 1. Briefly: Inhibition of viral RNA production in HIV-1-infected MT-2 cells. In kind it is functional. Conditions: Human immunodeficiency virus 1, MT2.
For experiment [3], the system named is MT2. The experiment in a line: Antiviral activity assessed in a cell based assay measuring the inhibition of viral RNA production in HIV-1-infected MT-2 cells at concentrations of up to 50 ug/mL; not active. Conditions: Homo sapiens. It counts as functional.

The source made the active and inactive calls. No cut-off for these calls is given here.

In experiment [1], `O=C1N(CCCCCO)[C@H](Cc2ccccc2)[C@H](O)[C@@H](O)[C@@H](Cc2ccccc2)N1CCCCCO` had a Ki of 1.4 nM. Besides, the concentration for an effect of 90% (IC90) in experiment [2] amounted to 953 nM.
Turning to `O=C(NCCCCCN1C(=O)N(CCCCCNC(=O)c2ccccc2)[C@H](Cc2ccccc2)[C@H](O)[C@@H](O)[C@H]1Cc1ccccc1)c1ccccc1`, in experiment [1], the affinity, expressed as Ki, was 59 nM. In addition, in experiment [3], the IC90 result is “inactive”.
Take `O=C1N(CCCCCCCO)[C@H](Cc2ccccc2)[C@H](O)[C@@H](O)[C@@H](Cc2ccccc2)N1CCCCCCCO`: in experiment [1], the inhibition constant Ki was determined as 34 nM. In experiment [2], the IC90 was 9010 nM.
For the molecule `CS(=O)(=O)NCCCCCN1C(=O)N(CCCCCNS(C)(=O)=O)[C@H](Cc2ccccc2)[C@H](O)[C@@H](O)[C@H]1Cc1ccccc1`, in experiment [1], the inhibition constant Ki came to 270 nM. The IC90 result in experiment [3] was “inactive”.
`O=C(NCCCCCN1C(=O)N(CCCCCNC(=O)c2cccc(F)c2)[C@H](Cc2ccccc2)[C@H](O)[C@@H](O)[C@H]1Cc1ccccc1)c1cccc(F)c1` gave a Ki in experiment [1] of 14 nM. The molecule also returned an IC90 in experiment [2] of 8770 nM.
`O=C1N(CCCCO)[C@H](Cc2ccccc2)[C@H](O)[C@@H](O)[C@@H](Cc2ccccc2)N1CCCCO` returned a Ki in experiment [1] of 42 nM. This molecule yielded an IC90 in experiment [2] of 22700 nM.
As for `O=C1N(CCCCCO)[C@H](Cc2ccccc2)[C@H](O)[C@@H](O)[C@@H](Cc2ccccc2)N1Cc1ccc(CO)cc1`, the Ki in experiment [1] was 0.1 nM. For the same molecule, it took 108 nM to reach the 90% level in experiment [2] (IC90).
The molecule `O=C1N(CCCO)[C@H](Cc2ccccc2)[C@H](O)[C@@H](O)[C@@H](Cc2ccccc2)N1CCCO` came in with an inhibitory constant (Ki) in experiment [1] of 51 nM. Moreover, the IC90 entry in experiment [3] is “inactive”.
`CNC(=O)NCCCCCN1C(=O)N(CCCCCNC(=O)NC)[C@H](Cc2ccccc2)[C@H](O)[C@@H](O)[C@H]1Cc1ccccc1`: the affinity in experiment [1] corresponds to a Ki of 270 nM. Moreover, in experiment [3], the IC90 entry was “inactive”.
The molecule `COC(=O)CCCCCN1C(=O)N(CCCCCC(=O)OC)[C@H](Cc2ccccc2)[C@H](O)[C@@H](O)[C@H]1Cc1ccccc1` returned an inhibition constant (Ki) in experiment [1] of 29 nM. The 90% effect concentration (IC90) in experiment [2] was found to be 30900 nM.
`O=C1N(CCCCCCO)[C@H](Cc2ccccc2)[C@H](O)[C@@H](O)[C@@H](Cc2ccccc2)N1CCCCCCO` registered a Ki in experiment [1] of 0.47 nM. The molecule further had an IC90 in experiment [2] of 1510 nM.
On to `O=C(O)CCCCCN1C(=O)N(CCCCCC(=O)O)[C@H](Cc2ccccc2)[C@H](O)[C@@H](O)[C@H]1Cc1ccccc1`, for which, in experiment [1], the affinity corresponds to a Ki of 0.24 nM. Besides, the IC90 entry in experiment [3] is “inactive”.
Consider `O=C1N(CCCCCCCCO)[C@H](Cc2ccccc2)[C@H](O)[C@@H](O)[C@@H](Cc2ccccc2)N1CCCCCCCCO`, for which the Ki in experiment [1] came to 500 nM. In addition, the concentration for an effect of 90% (IC90) in experiment [2] is 17200 nM.
For the molecule `CC(=O)NCCCCCN1C(=O)N(CCCCCNC(C)=O)[C@H](Cc2ccccc2)[C@H](O)[C@@H](O)[C@H]1Cc1ccccc1`, in experiment [1], the Ki came to 350 nM. For the same molecule, the IC90 result in experiment [3] is “inactive”.
In turn, `O=C1N(CCCCCO)[C@H](Cc2ccccc2)[C@H](O)[C@@H](O)[C@@H](Cc2ccccc2)N1Cc1cccc(O)c1` registered an inhibition constant (Ki) in experiment [1] of 0.081 nM. The IC90 in experiment [2] worked out at 36 nM.
For `CCOC(=O)c1cccc(CN2C(=O)N(CCCCCO)[C@H](Cc3ccccc3)[C@H](O)[C@@H](O)[C@H]2Cc2ccccc2)c1`, in that order: 0.72 nM and 365 nM.
In the same order, the values of `O=C1N(CCCCCO)[C@H](Cc2ccccc2)[C@H](O)[C@@H](O)[C@@H](Cc2ccccc2)N1CC1CC1` are 0.99 nM and 814 nM.
`NCCCCCN1C(=O)N(CCCCCN)[C@H](Cc2ccccc2)[C@H](O)[C@@H](O)[C@H]1Cc1ccccc1` returned an inhibitory constant (Ki) in experiment [1] of 1250 nM. The IC90 result in experiment [3] was “inactive”.
On to `NCCCCN1C(=O)N(CCCCN)[C@H](Cc2ccccc2)[C@H](O)[C@@H](O)[C@H]1Cc1ccccc1`, for which the Ki in experiment [1] is 1250 nM. Also, the IC90 result in experiment [3] is “inactive”.
The molecule `O=C(NCCCCCN1C(=O)N(CCCCCNC(=O)c2ccncc2)[C@H](Cc2ccccc2)[C@H](O)[C@@H](O)[C@H]1Cc1ccccc1)c1ccncc1` registered a Ki in experiment [1] of 16 nM. The molecule further gave a concentration for an effect of 90% (IC90) in experiment [2] of 9900 nM.
In experiment [1], `O=C(NCCCCCN1C(=O)N(CCCCCNC(=O)c2ccc(F)cc2)[C@H](Cc2ccccc2)[C@H](O)[C@@H](O)[C@H]1Cc1ccccc1)c1ccc(F)cc1` had an inhibition constant Ki of 18 nM. The IC90 result in experiment [3] was “inactive”.
`O=C1N(CCCCCCO)[C@H](Cc2ccccc2)[C@H](O)[C@@H](O)[C@@H](Cc2ccccc2)N1Cc1ccc2ccccc2c1` had a Ki in experiment [1] of 1.7 nM. In experiment [2], this molecule gave an IC90 of 264 nM.
Regarding `O=C1N(CCCCCO)[C@H](Cc2ccccc2)[C@H](O)[C@@H](O)[C@@H](Cc2ccccc2)N1Cc1cccc(CO)c1`, in experiment [1], the affinity corresponds to a Ki of 0.058 nM. The same molecule came in with a concentration for an effect of 90% (IC90) in experiment [2] of 76 nM.
Regarding `O=C(Cc1cccnc1)NCCCCCN1C(=O)N(CCCCCNC(=O)Cc2cccnc2)[C@H](Cc2ccccc2)[C@H](O)[C@@H](O)[C@H]1Cc1ccccc1`, in experiment [1], the Ki worked out at 8.9 nM. Further, the 90% effect level in experiment [2] (IC90) was put at 3130 nM.
With `COCCCCCN1C(=O)N(CCCCCOC)[C@H](Cc2ccccc2)[C@H](O)[C@@H](O)[C@H]1Cc1ccccc1`, the inhibition constant (Ki) in experiment [1] is 96 nM. In experiment [3], the IC90 result is “inactive”.
Regarding `O=C1N(CCCCCO)[C@H](Cc2ccccc2)[C@H](O)[C@@H](O)[C@@H](Cc2ccccc2)N1Cc1ccc2ccccc2c1`, the inhibition constant Ki in experiment [1] worked out at 0.24 nM. In addition, the 90% effect concentration (IC90) in experiment [2] worked out at 199 nM.
For `O=C1N(CCCCCO)[C@H](Cc2ccccc2)[C@H](O)[C@@H](O)[C@@H](Cc2ccccc2)N1Cc1ccccc1`, in that order: 0.68 nM and 398 nM.
